The record followed here is patent publication US9296746B2, “Heterocyclic compound” (TAKEDA PHARMACEUTICAL COMPANY LIMITED, priority 2012, dated 2016).

T1 sequence (Q9Y6A2 whole entry): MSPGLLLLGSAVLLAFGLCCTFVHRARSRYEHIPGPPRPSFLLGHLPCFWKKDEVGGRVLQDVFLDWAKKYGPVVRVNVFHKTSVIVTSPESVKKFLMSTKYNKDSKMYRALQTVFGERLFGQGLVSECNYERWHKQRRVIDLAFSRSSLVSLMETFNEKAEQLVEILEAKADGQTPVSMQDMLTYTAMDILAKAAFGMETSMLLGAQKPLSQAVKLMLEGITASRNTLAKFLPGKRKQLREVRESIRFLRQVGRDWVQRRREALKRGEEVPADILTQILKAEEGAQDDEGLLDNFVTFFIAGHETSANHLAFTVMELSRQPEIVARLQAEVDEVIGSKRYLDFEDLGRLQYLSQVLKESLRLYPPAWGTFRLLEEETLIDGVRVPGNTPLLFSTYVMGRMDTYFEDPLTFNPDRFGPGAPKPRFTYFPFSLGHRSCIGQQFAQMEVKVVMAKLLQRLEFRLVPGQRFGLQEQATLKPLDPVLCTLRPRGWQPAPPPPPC

This test has as its target T1, human CH24H (Homo sapiens, UniProt Q9Y6A2).
T1 construct: Using Full-Length Mammalian Gene Collection No. 4819975 (Invitrogen) as a template; made in house; host or cells: FreeStyle 293-F cells (transient transfection); cell lysate supernatant, not purified
The test is described as follows: Measurement of CH24H inhibitory activity (24-HC produced from [14C] cholesterol by human CH24H lysate). Type of test: biochemical. As to conditions: test compound 1 μM, [14C] cholesterol 15 μM, 37° C., 5 hr, read-out: Inhibitory Rate (%) in 1 μM. The method, then: The expression of human CH24H was performed using FreeStyle 293 Expression System (Invitrogen). According to the manual attached to FreeStyle 293 Expression System and using the plasmid DNA for human CH24H expression (pcDNA3.1(+)/hCH24H) constructed in Experimental Example 1, a transient expression using FreeStyle 293-F cell was performed. After transfection, the cells were cultured at 37° C., 8% CO2 with shaking at 125 rpm for 2 days. The cells were collected by centrifugation, and suspended in a suspension buffer (100 mM potassium phosphate (pH 7.4), 0.1 mM EDTA, 1 mM DTT, 20% Glycerol). The suspended product was disrupted by a polytron homogenizer (manufactured by Kinematica), and centrifuged at 9000×g for 10 min, and the supernatant was collected. The collected supernatant was cryopreserved (−80° C.) as a human CH24H lysate standard product.
For the measurement of CH24H inhibitory activity, using the human CH24H lysate prepared in Experimental Example 2, the amount of 24-HC produced from cholesterol by catalytic activity of CH24H was measured in the presence of a test compound, and compared with that measured in the absence of the test compound. That is, a test compound solution at various concentrations was mixed with a reaction buffer (50 mM potassium phosphate containing 0.1% BSA and Complete, EDTA-free, pH 7.4) and human CH24H lysate. Then, [^14C] cholesterol (53 mCi/mmol specific activity, 15 μM) was added, and CH24H reaction was performed at 37° C. for 5 hr. After completion of the reaction, a quenching solution consisting of chloroform/methanol/distilled water (2:2:1 v/v) was added, and the resulting 24-HC was extracted by shaking. The extract was applied to silica gel thin layer chromatography (ethyl acetate:toluene=4:6), and the obtained ^14C-24HC fraction was measured with BAS2500 (Fujifilm Corporation).
The inhibitory rate (%) was calculated from the ratio of radioactivity in the presence of a test compound relative to the radioactivity in the absence of the test compound.
Consider `CCOC(=O)c1cnc2c(-c3cnco3)cc(C(F)(F)F)cn12` [Example 1, ethyl 8-(1,3-oxazol-5-yl)-6-(trifluoromethyl)imidazo[1,2-a]pyridine-3-carboxylate], for which the inhibition at 1 µM was determined as 86%.
In the case of `O=C(c1cnc2c(-c3cnco3)cc(C(F)(F)F)cn12)N1CCCC1` [Example 2, (8-(1,3-oxazol-5-yl)-6-(trifluoromethyl)imidazo[1,2-a]pyridin-3-yl)(pyrrolidin-1-yl)methanone], the inhibition at 1 µM came to 89%.
In the case of `O=C(C1CC1)n1ccc2c(-c3cnco3)cc(C(F)(F)F)cc21` [Example 4, cyclopropyl(4-(1,3-oxazol-5-yl)-6-(trifluoromethyl)-1H-indol-1-yl)methanone], the inhibition at 1 µM came to 88%.
On to `O=C(c1cnc2c(-c3cnco3)cc(C(F)(F)F)cn12)N1CCOCC1` [Example 16, morpholin-4-yl(8-(1,3-oxazol-5-yl)-6-(trifluoromethyl)imidazo[1,2-a]pyridin-3-yl)methanone], for which the inhibition at 1 µM is 87%.
Consider `O=C(c1cnc2c(-c3cnco3)cc(C(F)(F)F)cn12)N1CC(F)(F)C1` [Example 21, (3,3-difluoroazetidin-1-yl)(8-(1,3-oxazol-5-yl)-6-(trifluoromethyl)imidazo[1,2-a]pyridin-3-yl)methanone], for which the inhibition at 1 µM was found to be 99%.
For `O=C(c1cnc2c(-c3cnco3)cc(C(F)(F)F)cn12)N1CC2(COC2)C1` [Example 22, 2-oxa-6-azaspiro[3.3]hept-6-yl(8-(1,3-oxazol-5-yl)-6-(trifluoromethyl)imidazo[1,2-a]pyridin-3-yl)methanone], the inhibition at 1 µM came out at 93%.
As to `O=C(NC1CCOCC1)c1cnc2c(-c3cnco3)cc(C(F)(F)F)cn12` [Example 44, 8-(1,3-oxazol-5-yl)-N-(tetrahydro-2H-pyran-4-yl)-6-(trifluoromethyl)imidazo[1,2-a]pyridine-3-carboxamide], the inhibition at 1 µM is 93%.
As for `CN(C(=O)c1cnc2c(-c3cnco3)cc(C(F)(F)F)cn12)C1CCOCC1` [Example 47, N-methyl-8-(1,3-oxazol-5-yl)-N-(tetrahydro-2H-pyran-4-yl)-6-(trifluoromethyl)imidazo[1,2-a]pyridine-3-carboxamide], the inhibition at 1 µM was determined as 92%.
For the molecule `O=C(c1nnc2c(-c3cnco3)cc(C(F)(F)F)cn12)N1C[C@@H]2C[C@H]1CO2` [Example 58, (1S,4S)-2-oxa-5-azabicyclo[2.2.1]hept-5-yl(8-(1,3-oxazol-5-yl)-6-(trifluoromethyl)[1,2,4]triazolo[4,3-a]pyridin-3-yl)methanone], the inhibition at 1 µM amounted to 80%.
As to `O=C(c1cnc2c(-c3cnco3)cc(C(F)(F)F)cn12)N1C[C@@H]2C[C@H]1CO2` [Example 71, (1S,4S)-2-oxa-5-azabicyclo[2.2.1]hept-5-yl(8-(1,3-oxazol-5-yl)-6-(trifluoromethyl)imidazo[1,2-a]pyridin-3-yl)methanone], the inhibition at 1 µM amounted to 88%.
To `O=C(Nc1ccccc1)c1cnc2c(-c3cnco3)cc(C(F)(F)F)cn12` [Example 74, 8-(1,3-oxazol-5-yl)-N-phenyl-6-(trifluoromethyl)imidazo[1,2-a]pyridine-3-carboxamide] belongs 96%.
To `Cc1cc(-c2cnco2)c2ncc(C(=O)N3C[C@@H]4C[C@H]3CO4)n2c1` [Example 78, (6-methyl-8-(1,3-oxazol-5-yl)imidazo[1,2-a]pyridin-3-yl)((1S,4S)-2-oxa-5-azabicyclo[2.2.1]hept-5-yl)methanone] belongs 94%; to `O=C(c1cnc2c(-c3cnco3)cc(C(F)(F)F)cn12)N1C2COCC1C2` [Example 86, 3-oxa-6-azabicyclo[3.1.1]hept-6-yl(8-(1,3-oxazol-5-yl)-6-(trifluoromethyl)imidazo[1,2-a]pyridin-3-yl)methanone], 95%; to `O=C(c1cnc2c(-c3cnco3)cc(C(F)(F)F)cn12)N1CC[C@H](O)C1` [Example 87, ((3S)-3-hydroxypyrrolidin-1-yl)(8-(1,3-oxazol-5-yl)-6-(trifluoromethyl)imidazo[1,2-a]pyridin-3-yl)methanone], 94%.
In the case of `O=C(c1cnc2c(-c3cnco3)cc(C(F)(F)F)cn12)N1CC[C@H](OCC(F)F)C1` [Example 90, ((3S)-3-(2,2-difluoroethoxy)pyrrolidin-1-yl)(8-(1,3-oxazol-5-yl)-6-(trifluoromethyl)imidazo[1,2-a]pyridin-3-yl)methanone], the inhibition at 1 µM was 91%.
`O=C(c1cnc2c(-c3cnco3)cc(Cl)cn12)N1C[C@@H]2C[C@H]1CO2` [Example 92, (6-chloro-8-(1,3-oxazole-5-yl)imidazo[1,2-a]pyridin-3-yl)((1S,4S)-2-oxa-5-azabicyclo[2.2.1]hept-5-yl)methanone]: the inhibition at 1 µM was found to be 86%.
Consider `O=C(c1cnc2c(-c3cnco3)cc(-c3cnco3)cn12)N1C[C@@H]2C[C@H]1CO2` [Example 93, (6,8-di(1,3-oxazol-5-yl)imidazo[1,2-a]pyridin-3-yl)((1S,4S)-2-oxa-5-azabicyclo[2.2.1]hept-5-yl)methanone], for which the inhibition at 1 µM stood at 68%.
To `CCNC(=O)c1c(C)nc2c(-c3cnco3)cc(C(F)(F)F)cn12` [Example 98, N-ethyl-2-methyl-8-(1,3-oxazol-5-yl)-6-(trifluoromethyl)imidazo[1,2-a]pyridine-3-carboxamide] belongs 69%; to `O=C(NCc1ccccc1)c1nnc2c(-c3cnco3)cc(C(F)(F)F)cn12` [Example 107, N-benzyl-8-(1,3-oxazol-5-yl)-6-(trifluoromethyl)[1,2,4]triazolo[4,3-a]pyridine-3-carboxamide], 89%.
Turning to `O=C(c1cnc2c(-c3cnco3)cc(C3CC3)cn12)N1C[C@@H]2C[C@H]1CO2` [Example 116, (6-cyclopropyl-8-(1,3-oxazol-5-yl)imidazo[1,2-a]pyridin-3-yl)((1S,4S)-2-oxa-5-azabicyclo[2.2.1]hept-5-yl)methanone], the inhibition at 1 µM stood at 90%.
Regarding `Cc1cc(-c2cnco2)n2ncc(C(=O)N3C[C@@H]4C[C@H]3CO4)c2c1` [Example 126, (5-methyl-7-(1,3-oxazol-5-yl)pyrazolo[1,5-a]pyridin-3-yl)((1S,4S)-2-oxa-5-azabicyclo[2.2.1]hept-5-yl)methanone], the inhibition at 1 µM worked out at 93%.
To `O=C(c1cnc2c(-n3cncn3)cc(C(F)(F)F)cn12)N1C[C@@H]2C[C@H]1CO2` [Example 128, (1S,4S)-2-oxa-5-azabicyclo[2.2.1]hept-5-yl(8-(1H-1,2,4-triazol-1-yl)-6-(trifluoromethyl)imidazo[1,2-a]pyridin-3-yl)methanone] belongs 86%; to `O=C(c1cnc2c(-c3cn[nH]c3)cc(C(F)(F)F)cn12)N1C[C@@H]2C[C@H]1CO2` [Example 134, (1S,4S)-2-oxa-5-azabicyclo[2.2.1]hept-5-yl(8-(1H-pyrazol-4-yl)-6-(trifluoromethyl)imidazo[1,2-a]pyridin-3-yl)methanone], 71%.
Turning to `O=C(c1cnc2c(-c3cnco3)cc(F)cn12)N1C2CCC1COC2` [Example 138, (6-fluoro-8-(1,3-oxazol-5-yl)imidazo[1,2-a]pyridin-3-yl)(3-oxa-8-azabicyclo[3.2.1]oct-8-yl)methanone], the inhibition at 1 µM was determined as 82%.
Regarding `O=C(c1cnc2c(-n3cncn3)cc(C(F)(F)F)cn12)N1C2CCC1COC2` [Example 142, 3-oxa-8-azabicyclo[3.2.1]oct-8-yl(8-(1H-1,2,4-triazol-1-yl)-6-(trifluoromethyl)imidazo[1,2-a]pyridin-3-yl)methanone], the inhibition at 1 µM amounted to 87%.
Turning to `O=C(c1cnc2c(-c3cnco3)cc(C3CC3)cn12)N1C2CCC1COC2` [Example 143, (6-cyclopropyl-8-(1,3-oxazol-5-yl)imidazo[1,2-a]pyridin-3-yl)(3-oxa-8-azabicyclo[3.2.1]oct-8-yl)methanone], the inhibition at 1 µM was found to be 91%.
Take `CC(=O)c1cc(-c2cnco2)c2ncc(C(=O)N3C[C@@H]4C[C@H]3CO4)n2c1` [Example 155, 1-(3-((1S,4S)-2-oxa-5-azabicyclo[2.2.1]hept-5-ylcarbonyl)-8-(1,3-oxazol-5-yl)imidazo[1,2-a]pyridin-6-yl)ethanone]: the inhibition at 1 µM stood at 84%.
In the case of `O=C(c1cnc2c(-n3cncn3)cc(C(F)(F)F)cn12)N1C2COCC1C2` [Example 156, 3-oxa-6-azabicyclo[3.1.1]hept-6-yl(8-(1H-1,2,4-triazol-1-yl)-6-(trifluoromethyl)imidazo[1,2-a]pyridin-3-yl)methanone], the inhibition at 1 µM was 94%.
Take `O=C(c1cnc2c(-c3cnco3)cc(C(F)F)cn12)N1C[C@@H]2C[C@H]1CO2` [Example 171, (6-(difluoromethyl)-8-(1,3-oxazol-5-yl)imidazo[1,2-a]pyridin-3-yl)((1S,4S)-2-oxa-5-azabicyclo[2.2.1]hept-5-yl)methanone]: the inhibition at 1 µM was 91%.
